This note sets out measurements from patent US9782368B2, “Use of N,N-bis-2-mercaptoethyl isophthalamide” (EMERAMED LIMITED, priority 2014, dated 2017).

For series [1], the system named is IL-6 and IL-8 secretion in A549 cells. Put plainly: Particle-induced secretion of pro-inflammatory cytokines (ELISA) in A549 cells. The class given is cell-based. Particulars: A549 cells. As for the experimental part:
Secretion of the pro-inflammatory cytokines interleukin (IL)-6, IL-8 (as well as GM-CSF and MCP-1) into cell media in response to particle exposure was measured in A549 and BEAS-2B cells using the following method.
Lung epithelial cells were seeded at 5×10^4 in 24-well plates. After pre-incubation with NBMI, the anti-oxidant compound, N-acetyl-L-cysteine (NAC), which was used as a positive control, or vehicle, for 3 hours the medium was removed.
Fresh media containing various particles (as below) in different concentrations was in a total volume of 0.5 ml for an additional 24 hours. The supernatants were then separated from the cells by centrifugation.
IL-8, IL-6, GM-CSF and MCP-1 were measured in the cell free fluid using the DuoSet ELISA Development kit (R&D Systems, Abingdon, UK) according to manufacturer's protocol.
Exposure to medium only served as negative control. Each experiment was performed twice with 4 replicates.
The effect of pre-incubation with 50 μM NBMI on particle-induced cytokine formation was tested at various concentrations of relevant particles.

Series [2] is described as follows: Ascorbate depletion assay, 9,10-PQ-sponsored oxidation, recycling of DHA. Conditions: 9,10-PQ model, 200 μM added at 60 minutes. As for the experimental part:
(§1) The kinetics of ascorbate oxidation, sponsored by both 1 μM 9,10-PQ and 2 μM copper sulphate (CuSO4), was examined using the ascorbate depletion assay (Kelly et al, Res. Rep. Health Eff. Inst., 163, 3 (2011). 9,10-PQ was employed so that the action of NBMI could be examined in isolation of its chelation properties.
(§2) All experiments were performed in triplicate in UV 96 well flat-bottomed plates (Greiner bio-one) at a final volume of 200 μL. Exposures were initiated by the addition of 20 μL of a concentrated stock of ascorbate (2 mM) into each well containing 160 μL of Chelex-100 resin treated water (containing 10% DMSO), plus either 10 μL of water, CuSO4 stock solution at 4 mM or 9,10-PQ stock solution at 2 mM, and 10 μL of NMBI (4 mM and […]).
(§3) All solutions were prepared in Chelex-100 resin treated water (containing 10% DMSO). This yielded final concentrations in the wells of […], 2 μM CuSO4, or 1 μM 9,10-PQ and between 10 and 200 μM of NBMI.
(§4) Immediately prior to the addition of the ascorbate to each assay well, the plate was pre-incubated for 10 minutes at 37° C. in a plate reader (Spectra Max 190). During the exposure, the plate was maintained at this temperature. After addition of ascorbate, the concentration remaining in each well was monitored every 2 minutes for a period of two hours by measuring the absorbance at 265 nm. The ascorbate concentration was determined with reference to a standard curve, with the rate of ascorbate oxidation determined by performing a linear regression through the initial part of a concentration verses time plot using Microcal Software Limited's OriginLab (version 5.0). This was performed for each of the triplicates and the rate of ascorbate depletion was finally expressed as mean mol s 1×10^−9 depletion of ascorbate±standard deviation.
(§5) For the experiments in which the impact of adding NBMI to the ascorbate was measured, CuSO4 and 9,10-PQ depletion assays were examined later in the time course. The plates were ran with 190 μL only for the first 55-60 minutes, after which they were removed from the plate reader and 10 μL of either the NMBI or the known reducing agent, DTT stock solution, or water was added to each well. The plate was then returned to the plate reader and the absorbance at 265 nm monitored for a further 60 minutes.
(§6) The immediate increase in the measured ascorbate concentrations was determined and is referred to as the ‘jump’, as a measure of immediate recycling capacity. The sustained ‘increase’ over the remaining 60 minutes of the incubation was also determined.

Series [3] can be described thus: Ascorbate depletion assay, CuSO4-sponsored oxidation, recycling of DHA. Conditions: CuSO4 model. As for the experimental part: as §1, §2, §3, §4, §5, §6
Setting [4] is: TiO2 P25 75 μg/cm^2, pre-incubation 50 μM NBMI.
[5] abbreviates: Urban Dust 100 μg/cm^2, pre-incubation 50 μM NBMI.

As for `O=C(NCCS)c1cccc(C(=O)NCCS)c1` [NBMI, N,N-bis-2-mercaptoethyl isophthalamide], in series [1] (setting [4]), the “reduction of secretion of IL-6” value stood at 38% and the “reduction of secretion of IL-8” value was found to be 29%. Besides, in series [1] (setting [5]), the “reduction of secretion of IL-6” value amounted to 38% and the “reduction of secretion of IL-8” value was 30%. In series [2], the “immediate rebound increase in ascorbate” value was 42.8 µM and the “rate of ascorbate oxidation after addition” value is reported as “reduced relative to the first 60 minute period”. For the same compound, in series [3] (200 μM added at 60 minutes), the “immediate 'jump' in ascorbate concentration” value stood at 24.98 ± 5.54 µM and the “sustained 'increase' in ascorbate over remaining 60 minutes” value turned out to be 25.45 ± 2.45 µM. In addition, the “subsequent rate of oxidation after addition” value in series [3] (addition at 10, 20 and 30 minutes) was “quenched”.
